The source made the active and inactive calls. No cut-off for these calls is given here.
Test system: Rhizoctonia solani
Assay: Growth inhibition of Rhizoctonia solani assessed as inhibition of fungal mycelia expansion at 1 mg after 2 days by agar plug assay
Type: functional, organism-based

`OCC1=C[C@@H](N[C@H]2C[C@H](CO)[C@@H](O[C@H]3O[C@@H](CO)[C@H](O)[C@@H](O)[C@@H]3O)[C@H](O)[C@H]2O)[C@H](O)[C@@H](O)[C@@H]1O` was tested, and the Activity was “Active”.

— ChEMBL document CHEMBL1155033, “Catalytic analysis of the validamycin glycosyltransferase (ValG) and enzymatic production of 4''-epi-validamycin A” (J Nat Prod, 2008)
